Test systems include LOX IMVI melanoma; OVCAR-4 ovarian; NCI-H460 lung; SF-268 CNS; SK-MEL-28 melanoma; EKVX NSCLC; HCT-116 colon; SW-620 colon; HT29 colon; MDA-MB-435; SN12C renal; RXF 393 renal; OVCAR-3 ovarian; M14 melanoma; KM12 colon; MALME-3M melanoma; HL-60(TB) leukemia; OVCAR-8 ovarian; NCI-H23 lung; NCI-H226 lung.
Holding throughout (experiment): NCI tumour cell line growth inhibition, 48 h

This is an account of results in PubChem BioAssay (NCI).

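Interpolation was linear, between the two tested concentrations surrounding the appropriate level; five concentrations were tested over 48 hours in 96-well plates. At the TGI there is no net growth.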

`CN(CCNC(=O)c1nn(-c2ccccc2)c2c1Cc1ccccc1-2)CCNC(=O)c1nn(-c2ccccc2)c2c1Cc1ccccc1-2`: the TGI turned out to be 3.32 µM with LOX IMVI melanoma; 4.48 µM in the assay with OVCAR-4 ovarian; 3.15 µM in the assay on NCI-H460 lung; 4.74 µM in the assay with SF-268 CNS; 3.24 µM in the assay on SK-MEL-28 melanoma; 9.65 µM in the assay with EKVX NSCLC. In addition, the TGI in the assay with HCT-116 colon was 3.13 µM; in the assay with SW-620 colon, 3.09 µM; in the assay with HT29 colon, 3.73 µM; in the assay on MDA-MB-435, 3.17 µM; in the assay with SN12C renal, 3.61 µM; in the assay on RXF 393 renal, 3.07 µM. Besides, the TGI in the assay on OVCAR-3 ovarian turned out to be 3.52 µM; in the assay with M14 melanoma, 3.27 µM; in the assay on KM12 colon, 3.69 µM; in the assay with MALME-3M melanoma, 3.34 µM; in the assay on HL-60(TB) leukemia, 2.91 µM; in the assay on OVCAR-8 ovarian, 3.17 µM. This molecule also came in with a TGI in the assay on NCI-H23 lung of 3.7 µM.
As for `O=C(O)Cc1c(-c2ccc([N+](=O)[O-])cc2)c(=O)oc2cc(O)ccc12`, the TGI was over 100 µM in the assay with LOX IMVI melanoma; over 100 µM in the assay with NCI-H460 lung; over 100 µM in the assay on SF-268 CNS; over 100 µM in the assay with SK-MEL-28 melanoma; 83 µM in the assay with EKVX NSCLC; 73.6 µM in the assay with HCT-116 colon. Moreover, the TGI in the assay with SW-620 colon was over 100 µM; in the assay with HT29 colon, over 100 µM; in the assay on MDA-MB-435, 93.9 µM; in the assay on SN12C renal, over 100 µM; in the assay with RXF 393 renal, over 100 µM; in the assay on NCI-H226 lung, over 100 µM. Also, the TGI is 46.2 µM in the assay on OVCAR-3 ovarian; over 100 µM in the assay with M14 melanoma; 93.5 µM in the assay on KM12 colon; 59.9 µM with MALME-3M melanoma; 39.4 µM in the assay on HL-60(TB) leukemia; 74.1 µM in the assay with OVCAR-8 ovarian. The same molecule gave a TGI in the assay with NCI-H23 lung of over 100 µM.
As to `COC(=O)[C@H](Cc1ccccc1)NP(=O)(OCCC#N)OCC1OC(n2cc(C)c(=O)[nH]c2=O)CC1N=[N+]=[N-]` (stereo partly drawn), the TGI in the assay with LOX IMVI melanoma, in the assay on OVCAR-4 ovarian, in the assay with NCI-H460 lung, with SF-268 CNS, in the assay on EKVX NSCLC and with HCT-116 colon was over 100 µM each time. Besides, the TGI with SW-620 colon, with HT29 colon, in the assay with MDA-MB-435, with SN12C renal, in the assay with RXF 393 renal and with NCI-H226 lung was over 100 µM in each case. In addition, the TGI in the assay on M14 melanoma, in the assay with KM12 colon, in the assay on MALME-3M melanoma, with HL-60(TB) leukemia, with OVCAR-8 ovarian and with NCI-H23 lung was over 100 µM in each case.
With `Cn1c(=O)c2c(nc3n(CCCCl)c(=O)ccn23)n(C)c1=O`, the TGI in the assay with LOX IMVI melanoma, in the assay on OVCAR-4 ovarian, with NCI-H460 lung, in the assay with SF-268 CNS, with SK-MEL-28 melanoma and in the assay with EKVX NSCLC was over 100 µM throughout. Also, the TGI in the assay on HCT-116 colon, with SW-620 colon, with HT29 colon, with MDA-MB-435, in the assay on SN12C renal and in the assay on RXF 393 renal was over 100 µM throughout. The TGI with NCI-H226 lung, in the assay on OVCAR-3 ovarian, in the assay on M14 melanoma, in the assay with KM12 colon, in the assay with HL-60(TB) leukemia and in the assay with OVCAR-8 ovarian was over 100 µM in each case. The TGI in the assay with NCI-H23 lung is over 100 µM.
On to `COc1ccc(CCCCl)c(C2=NCCc3cc(OC)c(OC)cc32)c1`, for which the TGI in the assay with OVCAR-4 ovarian, in the assay with NCI-H460 lung, with SF-268 CNS, in the assay with SK-MEL-28 melanoma, with EKVX NSCLC and in the assay on HCT-116 colon was over 100 µM each time. Also, the TGI in the assay with SW-620 colon, with HT29 colon, in the assay on MDA-MB-435, with SN12C renal, with RXF 393 renal and with NCI-H226 lung was over 100 µM each time. Further, the TGI in the assay on OVCAR-3 ovarian, in the assay with M14 melanoma, in the assay on KM12 colon, in the assay with HL-60(TB) leukemia, in the assay on OVCAR-8 ovarian and with NCI-H23 lung was over 100 µM throughout.
On to `CN1CN(c2ccccc2)C2(CCN(Cc3csc4ccccc34)CC2)C1=O`, for which the TGI in the assay with LOX IMVI melanoma was 25.2 µM; in the assay with SF-268 CNS it was over 100 µM; in the assay with SK-MEL-28 melanoma it was 68.7 µM; in the assay on EKVX NSCLC, 41.8 µM; with HCT-116 colon it was 19.2 µM; in the assay with SW-620 colon, over 100 µM. Further, the TGI with HT29 colon is 36.5 µM; with MDA-MB-435, 28.7 µM; in the assay on SN12C renal it was 30.6 µM; in the assay on RXF 393 renal it was 35.2 µM; in the assay on NCI-H226 lung, over 100 µM; with OVCAR-3 ovarian it was 27.4 µM. For the same molecule, the TGI with M14 melanoma was determined as 39.8 µM; in the assay with KM12 colon, 26.8 µM; with MALME-3M melanoma it was 45.5 µM; in the assay on HL-60(TB) leukemia it was 32.8 µM; in the assay with OVCAR-8 ovarian, 72.6 µM; in the assay on NCI-H23 lung it was 80.4 µM.
On to `CCc1cc2c(c3c1CCC3=O)CC1(Cc3ccc(C)cc3C1)C2` (stereo not drawn), for which the TGI is over 100 µM with LOX IMVI melanoma; 98 µM with OVCAR-4 ovarian; over 100 µM with EKVX NSCLC; 33.1 µM in the assay on HCT-116 colon; 46.9 µM in the assay on HT29 colon; over 100 µM in the assay on MDA-MB-435. Besides, the TGI in the assay on SN12C renal was over 100 µM; in the assay on RXF 393 renal, over 100 µM; in the assay with NCI-H226 lung it was 99.8 µM; in the assay on OVCAR-3 ovarian, over 100 µM; in the assay on M14 melanoma, over 100 µM; in the assay with KM12 colon it was over 100 µM. Also, the TGI in the assay on MALME-3M melanoma was over 100 µM; in the assay with HL-60(TB) leukemia, 41 µM; in the assay on OVCAR-8 ovarian it was over 100 µM; in the assay on NCI-H23 lung, over 100 µM.
Consider `CC(CC[C@@H](O)C(C)(C)O)C1[C@@H](O)CC2(C)C3CC(O)C4C(C)(C)[C@@H](OC5OC(CO)C(O)C(O)C5O)CC[C@@]45C[C@@]35CC[C@]12C` (stereo partly drawn), for which the TGI with OVCAR-4 ovarian, in the assay on NCI-H460 lung, with SF-268 CNS, with SK-MEL-28 melanoma, with EKVX NSCLC and with HCT-116 colon was over 10 µM in each case. For the same molecule, the TGI in the assay on SW-620 colon, in the assay on HT29 colon, in the assay with MDA-MB-435, with SN12C renal, in the assay on RXF 393 renal and in the assay with NCI-H226 lung was over 10 µM in each case. In addition, the TGI with OVCAR-3 ovarian, in the assay with M14 melanoma, with KM12 colon, in the assay on MALME-3M melanoma, with HL-60(TB) leukemia and with OVCAR-8 ovarian was over 10 µM in each case. The TGI in the assay on NCI-H23 lung is over 10 µM.
Consider `CN1CCN(C(=S)N(C(=O)c2ccc(Cl)cc2)c2ccccc2)CC1`, for which the TGI in the assay with LOX IMVI melanoma, with OVCAR-4 ovarian, in the assay with NCI-H460 lung, in the assay with SF-268 CNS, with SK-MEL-28 melanoma and with SW-620 colon was over 100 µM each time. The TGI with HT29 colon, in the assay on MDA-MB-435, in the assay on SN12C renal, in the assay with RXF 393 renal, with NCI-H226 lung and in the assay with OVCAR-3 ovarian was over 100 µM each time. Also, the TGI in the assay with M14 melanoma, in the assay on KM12 colon, in the assay on MALME-3M melanoma, with HL-60(TB) leukemia, in the assay on OVCAR-8 ovarian and in the assay on NCI-H23 lung was over 100 µM throughout.
With `Fc1ccc(Oc2nc3ccc(C(F)(F)F)cc3nc2-c2ccccc2)cc1`, the TGI with LOX IMVI melanoma, in the assay with OVCAR-4 ovarian, in the assay on NCI-H460 lung, with SF-268 CNS, in the assay with EKVX NSCLC and in the assay with HCT-116 colon was over 100 µM throughout. Also, the TGI was over 10 µM in the assay on SW-620 colon; over 100 µM in the assay with HT29 colon; over 100 µM in the assay on MDA-MB-435; over 100 µM with SN12C renal; over 100 µM in the assay on RXF 393 renal; over 100 µM in the assay with OVCAR-3 ovarian. Further, the TGI in the assay with M14 melanoma, with KM12 colon, in the assay with MALME-3M melanoma, in the assay on HL-60(TB) leukemia, with OVCAR-8 ovarian and with NCI-H23 lung was over 100 µM throughout.
Consider `C/C(=C(/C)c1ccc(O)cc1)c1ccc(O)cc1`, for which the TGI is over 100 µM with NCI-H460 lung; over 100 µM in the assay with SF-268 CNS; 88.2 µM with EKVX NSCLC; over 100 µM with HCT-116 colon; over 100 µM in the assay with SW-620 colon; over 100 µM in the assay on HT29 colon. Also, the TGI with MDA-MB-435, in the assay with SN12C renal, in the assay on RXF 393 renal, in the assay with NCI-H226 lung, with OVCAR-3 ovarian and with M14 melanoma was over 100 µM each time. The TGI with KM12 colon is over 100 µM; in the assay with MALME-3M melanoma, over 100 µM; in the assay with HL-60(TB) leukemia it was 81.4 µM; with OVCAR-8 ovarian, over 100 µM; in the assay on NCI-H23 lung it was over 100 µM.
For `CCN1CCC(O)(c2ccc(Oc3ccccc3)cc2)C(C(=O)c2ccc(Oc3ccccc3)cc2)C1` (stereo not drawn), the TGI with LOX IMVI melanoma was 16.9 µM; with OVCAR-4 ovarian, 25.3 µM; in the assay with NCI-H460 lung it was 13.2 µM; in the assay with SF-268 CNS it was 35.6 µM; in the assay with SK-MEL-28 melanoma, 26.5 µM; in the assay with EKVX NSCLC, 36.9 µM. In addition, the TGI in the assay with HCT-116 colon was 21.2 µM; in the assay with SW-620 colon, 26.4 µM; in the assay with HT29 colon, 26.4 µM; in the assay on MDA-MB-435, 26.2 µM; in the assay with SN12C renal, 29.5 µM; with RXF 393 renal, 53.4 µM. In addition, the TGI with OVCAR-3 ovarian turned out to be 31.9 µM; in the assay on M14 melanoma it was 26.3 µM; in the assay on KM12 colon it was 18.9 µM; in the assay on MALME-3M melanoma, 34.6 µM; with HL-60(TB) leukemia, 14.1 µM; with OVCAR-8 ovarian, 38.6 µM. The TGI with NCI-H23 lung amounted to 27.7 µM.
